Data taken from paper PMC10165273, “Itch receptor MRGPRX4 interacts with the receptor activity–modifying proteins” (The Journal of Biological Chemistry, 2023).
Where two headings read alike, the source gives them in different places.

Target: T1, MRGPRX4 + RAMP2 (Homo sapiens, UniProt Q96LA9)
T1 construct: expressed in transfected cells; host or cells: HEK293T
Test: IP1 accumulation, MRGPRX4 coexpressed with RAMP2
Format: cell-based
Conditions: for activation at 100 µM / activation at 20 µM / activation at 4 µM / activation at 0.8 µM / activation at […] / activation at 0.032 µM: 2 h
Description: HEK293T cells were transfected with 1 pg/cell of MRGPRX4 DNA, and the amount of DNA was kept constant at 2 pg/cell with pcDNA3.1(+) empty vector, unless otherwise specified. Twenty four hours after transfection, IP1 assay was performed as previously described ([51]). When applicable, cells were treated with 1 μM YM254890 (YM) or different concentrations of U73122 for 1 h prior to addition of agonist or buffer. After incubation for 2 h, HTRF reagents and IP1 calibration standards were added and incubated for 2 h in the dark at room temperature. Time-resolved fluorescence signals were read on the BioTek Synergy NEO-TRF Hybrid multi-mode reader (BioTek Instruments). All data were carried out in three independent experiments with three technical replicate each.
For RAMP DNA titration assay, HEK293T cells were cotransfected with a constant amount of 1 pg/cell of FLAG-MRGPRX4-GFP10-1D4 to which a serial dilution of 1, 0.75, 0.5, 0.25, or 0 pg/cell of each HA-RAMP-OLLAS was added. For a homogenous transfection of MRGPRX4, a master mix of MRGPRX4 DNA was made prior to addition of the RAMP DNA. […]
Data reduction, standard calibration, and transformation of HTRF data were performed as previously described ([51]). Normalized IP1 values were calculated relative to the unstimulated mock-transfected cells (set to 0%) and fully stimulated MRGPRX4 (alone if applicable) (set to 100%).

T1 sequence (Q96LA9 whole entry): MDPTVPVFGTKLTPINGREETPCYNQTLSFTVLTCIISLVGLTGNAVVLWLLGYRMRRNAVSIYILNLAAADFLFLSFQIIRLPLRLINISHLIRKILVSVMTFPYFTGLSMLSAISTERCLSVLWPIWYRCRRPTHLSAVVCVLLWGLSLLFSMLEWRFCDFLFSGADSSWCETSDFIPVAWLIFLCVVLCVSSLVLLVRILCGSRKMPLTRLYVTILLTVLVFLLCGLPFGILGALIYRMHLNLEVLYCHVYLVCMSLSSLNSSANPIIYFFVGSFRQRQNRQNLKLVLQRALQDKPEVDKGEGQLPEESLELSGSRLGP

In the case of `CC(C)[C@H]1CC[C@H](C(=O)N[C@H](Cc2ccccc2)C(=O)O)CC1` [Nateglinide], the activation at 100 µM (log [nateglinide] (M) -4, MRGPRX4+RAMP2 0.75pg 1:0.75, Supplementary Figure 5e, read-out: IP1 accumulation (normalized)) is reported as 67.4%, the activation at 100 µM (log [nateglinide] (M) -4, MRGPRX4+RAMP2 1pg 1:1, Supplementary Figure 5e, 5g, read-out: IP1 accumulation (normalized)) is reported as 56.4% and the activation at 20 µM (log [nateglinide] (M) -4.69897, MRGPRX4+RAMP2 0.5pg 1:0.5, Supplementary Figure 5e, read-out: IP1 accumulation (normalized)) is reported as 67.3%. The activation at 20 µM (log [nateglinide] (M) -4.69897, MRGPRX4+RAMP2 0.75pg 1:0.75, Supplementary Figure 5e, read-out: IP1 accumulation (normalized)) was 50.8%, the activation at 20 µM (log [nateglinide] (M) -4.69897, MRGPRX4+RAMP2 1pg 1:1, Supplementary Figure 5e, 5g, read-out: IP1 accumulation (normalized)) was 31.2% and the activation at 4 µM (log [nateglinide] (M) -5.39794, MRGPRX4+RAMP2 0.5pg 1:0.5, Supplementary Figure 5e, read-out: IP1 accumulation (normalized)) was 27.4%. For the same compound, the activation at 4 µM (log [nateglinide] (M) -5.39794, MRGPRX4+RAMP2 0.75pg 1:0.75, Supplementary Figure 5e, read-out: IP1 accumulation (normalized)) was 22.7%, the activation at 4 µM (log [nateglinide] (M) -5.39794, MRGPRX4+RAMP2 1pg 1:1, Supplementary Figure 5e, 5g, read-out: IP1 accumulation (normalized)) was 15% and the activation at 0.8 µM (log [nateglinide] (M) -6.09691, MRGPRX4+RAMP2 0.5pg 1:0.5, Supplementary Figure 5e, read-out: IP1 accumulation (normalized)) was 14.1%. It also gave an activation at 0.8 µM (log [nateglinide] (M) -6.09691, MRGPRX4+RAMP2 0.75pg 1:0.75, Supplementary Figure 5e, read-out: IP1 accumulation (normalized)) of 9.77%, an activation at 0.8 µM (log [nateglinide] (M) -6.09691, MRGPRX4+RAMP2 1pg 1:1, Supplementary Figure 5e, 5g, read-out: IP1 accumulation (normalized)) of 5.12% and an activation at […] (log [nateglinide] (M) -6.79588, MRGPRX4+RAMP2 0.5pg 1:0.5, Supplementary Figure 5e, read-out: IP1 accumulation (normalized)) of 8.46%. The activation at […] (log [nateglinide] (M) -6.79588, MRGPRX4+RAMP2 0.75pg 1:0.75, Supplementary Figure 5e, read-out: IP1 accumulation (normalized)) was 6.53%, the activation at […] (log [nateglinide] (M) -6.79588, MRGPRX4+RAMP2 1pg 1:1, Supplementary Figure 5e, 5g, read-out: IP1 accumulation (normalized)) was 3.5% and the activation at 0.032 µM (log [nateglinide] (M) -7.49485, MRGPRX4+RAMP2 0.5pg 1:0.5, Supplementary Figure 5e, read-out: IP1 accumulation (normalized)) was 8.31%. The activation at 0.032 µM (log [nateglinide] (M) -7.49485, MRGPRX4+RAMP2 0.75pg 1:0.75, Supplementary Figure 5e, read-out: IP1 accumulation (normalized)) was 6.16%, the activation at 0.032 µM (log [nateglinide] (M) -7.49485, MRGPRX4+RAMP2 1pg 1:1, Supplementary Figure 5e, 5g, read-out: IP1 accumulation (normalized)) was 3.54% and the activation at 100 µM (ratio MRGPRX4:RAMP2 1:0.25, log [Nateglinide] (M) -4, Fig S3b, read-out: IP1 accumulation) was 98.8%. The activation at 20 µM (ratio MRGPRX4:RAMP2 1:0.25, log [Nateglinide] (M) -4.69897, Fig S3b, read-out: IP1 accumulation) was 58.9%, the activation at 4 µM (ratio MRGPRX4:RAMP2 1:0.25, log [Nateglinide] (M) -5.39794, Fig S3b, read-out: IP1 accumulation) was 38% and the activation at 0.8 µM (ratio MRGPRX4:RAMP2 1:0.25, log [Nateglinide] (M) -6.09691, Fig S3b, read-out: IP1 accumulation) was 25.5%. It also gave an activation at […] (ratio MRGPRX4:RAMP2 1:0.25, log [Nateglinide] (M) -6.79588, Fig S3b, read-out: IP1 accumulation) of 22.6%, an activation at 0.032 µM (ratio MRGPRX4:RAMP2 1:0.25, log [Nateglinide] (M) -7.49485, Fig S3b, read-out: IP1 accumulation) of 20.5% and an activation at 100 µM (ratio MRGPRX4:RAMP2 1:0.5, log [Nateglinide] (M) -4, Fig S3b, read-out: IP1 accumulation) of 67.8%. The activation at 20 µM (ratio MRGPRX4:RAMP2 1:0.5, log [Nateglinide] (M) -4.69897, Fig S3b, read-out: IP1 accumulation) was 62.1%, the activation at 4 µM (ratio MRGPRX4:RAMP2 1:0.5, log [Nateglinide] (M) -5.39794, Fig S3b, read-out: IP1 accumulation) was 36.6% and the activation at 0.8 µM (ratio MRGPRX4:RAMP2 1:0.5, log [Nateglinide] (M) -6.09691, Fig S3b, read-out: IP1 accumulation) was 20.3%. It also gave an activation at […] (ratio MRGPRX4:RAMP2 1:0.5, log [Nateglinide] (M) -6.79588, Fig S3b, read-out: IP1 accumulation) of 15.7%, an activation at 0.032 µM (ratio MRGPRX4:RAMP2 1:0.5, log [Nateglinide] (M) -7.49485, Fig S3b, read-out: IP1 accumulation) of 15.3% and an activation at 100 µM (ratio MRGPRX4:RAMP2 1:1, log [Nateglinide] (M) -4, Fig S3b, read-out: IP1 accumulation) of 40.5%. The activation at 20 µM (ratio MRGPRX4:RAMP2 1:1, log [Nateglinide] (M) -4.69897, Fig S3b, read-out: IP1 accumulation) was 43.2%, the activation at 4 µM (ratio MRGPRX4:RAMP2 1:1, log [Nateglinide] (M) -5.39794, Fig S3b, read-out: IP1 accumulation) was 21.9% and the activation at 0.8 µM (ratio MRGPRX4:RAMP2 1:1, log [Nateglinide] (M) -6.09691, Fig S3b, read-out: IP1 accumulation) was 14.1%. For the same compound, the activation at […] (ratio MRGPRX4:RAMP2 1:1, log [Nateglinide] (M) -6.79588, Fig S3b, read-out: IP1 accumulation) was 11.3%, the activation at 0.032 µM (ratio MRGPRX4:RAMP2 1:1, log [Nateglinide] (M) -7.49485, Fig S3b, read-out: IP1 accumulation) was 11.1% and the activation at 100 µM (ratio MRGPRX4:RAMP2 1:2, log [Nateglinide] (M) -4, Fig S3b, read-out: IP1 accumulation) was 28%. It also gave an activation at 20 µM (ratio MRGPRX4:RAMP2 1:2, log [Nateglinide] (M) -4.69897, Fig S3b, read-out: IP1 accumulation) of 15.2%, an activation at 4 µM (ratio MRGPRX4:RAMP2 1:2, log [Nateglinide] (M) -5.39794, Fig S3b, read-out: IP1 accumulation) of 6.45% and an activation at 0.8 µM (ratio MRGPRX4:RAMP2 1:2, log [Nateglinide] (M) -6.09691, Fig S3b, read-out: IP1 accumulation) of 4.89%. The activation at […] (ratio MRGPRX4:RAMP2 1:2, log [Nateglinide] (M) -6.79588, Fig S3b, read-out: IP1 accumulation) was 3.86%, the activation at 0.032 µM (ratio MRGPRX4:RAMP2 1:2, log [Nateglinide] (M) -7.49485, Fig S3b, read-out: IP1 accumulation) was 3.91% and the Emax (Figure 4a bottom, DNA ratio MRGPRX4:RAMP2 1:1, MRGPRX4 alone = 100, read-out: efficacy) was 35.1%.
